Results as given in ChEMBL document CHEMBL4808221, “Design and Synthesis of Novel c-di-GMP G-Quadruplex Inducers as Bacterial Biofilm Inhibitors” (J Med Chem, 2021).
The source made the active and inactive calls. The rule behind the calls is not given here.

Experiments:
[1] = test system: Quadruplex DNA; assay: Induction of c-di-GMP G-quadruplex formation (unknown origin) measured at 300 nanometer by CD spectroscopy; format: nucleic-acid assay
[2] = test system: c-di-GMP G-quadruplex; assay: Induction of c-di-GMP G-quadruplex formation in Pseudomonas aeruginosa PAO1 harboring wspF gene mutation assessed as inhibition of biofilm formation at 1.25 uM incubated for 20 hrs by crystal violet staining assay relative to control; format: nucleic-acid assay
[3] = test system: c-di-GMP G-quadruplex; assay: Induction of c-di-GMP G-quadruplex formation in Pseudomonas aeruginosa PAO1 harboring wspF gene mutation assessed as inhibition of biofilm formation incubated for 20 hrs by crystal violet staining assay relative to control; format: nucleic-acid assay
[4] = test system: Pseudomonas aeruginosa; assay: Antibacterial activity against Pseudomonas aeruginosa PAO1 harboring wspF gene mutation assessed as reduction in bacterial growth at 512 uM by crystal violet staining assay relative to control; format: functional, organism-based

Q: For `C[n+]1c(/C=C/c2cnccn2)sc2ccccc21`, which Activity [1] is on record?
A: inactive

Q: And the inhibition [2]?
A: 11.4%

Q: And the IC50 [3]?
A: > 100 µM

Q: And the Activity [4]?
A: inactive

Q: Which results are given for `C[n+]1c(/C=C/c2ccncc2)sc2ccccc21`?
A: Activity [1]: inactive; IC50 [3]: > 100 µM; Activity [4]: inactive

Q: What does the source list for `C[n+]1c(/C=C/c2cc[nH]c2)sc2ccccc21`?
A: Activity [1]: Active; inhibition [2]: 17.7%; IC50 [3]: 7.84 µM; Activity [4]: inactive

Q: How did the Activity [1] turn out when `C[n+]1c(/C=C/c2ccc(O)c(F)c2)ccc2ccccc21` was run?
A: inactive

Q: What about the inhibition [2] of the same compound?
A: 4.21%

Q: And the IC50 [3]?
A: > 100 µM

Q: And the Activity [4]?
A: inactive

Q: How did the Activity [1] turn out when `C[n+]1c(/C=C/c2cccc(O)c2)ccc2ccccc21` was run?
A: Active

Q: And the inhibition [2]?
A: 29.4%

Q: And the IC50 [3]?
A: 6.81 µM

Q: What about the Activity [4] of the same compound?
A: inactive

Q: For `C[n+]1c(/C=C/c2ccc(Br)cc2)ccc2ccccc21`, which IC50 [3] is on record?
A: > 100 µM

Q: What about the Activity [4] of the same compound?
A: inactive

Q: For `C[n+]1c(/C=C/c2ccncc2)ccc2ccccc21`, which Activity [1] is on record?
A: inactive

Q: What about the inhibition [2] of the same compound?
A: 13%

Q: What about the IC50 [3] of the same compound?
A: > 100 µM

Q: And the Activity [4]?
A: inactive

Q: Which results are given for `C[n+]1c(/C=C/c2ccc(O)c(F)c2)sc2ccccc21`?
A: Activity [1]: inactive; inhibition [2]: -7.67%; IC50 [3]: > 100 µM; Activity [4]: inactive

Q: Which results are given for `C[n+]1c(/C=C/c2cc[nH]c2)ccc2ccccc21`?
A: Activity [1]: Active; inhibition [2]: 22.2%; IC50 [3]: 9.61 µM; Activity [4]: inactive

Q: Which Activity [1] does the source give for `C[n+]1c(/C=C/c2ccc(N3CCOCC3)cc2)sc2ccccc21` here?
A: inactive

Q: And the inhibition [2]?
A: 2.71%

Q: And the IC50 [3]?
A: > 100 µM

Q: What about the Activity [4] of the same compound?
A: inactive

Q: How did the inhibition [2] turn out when `C[n+]1c(/C=C/c2ccc(F)cc2)sc2ccccc21` was run?
A: 7.72%

Q: What about the IC50 [3] of the same compound?
A: > 100 µM

Q: What about the Activity [4] of the same compound?
A: inactive

Q: With `C[n+]1c(/C=C/c2ccccc2)ccc2ccccc21` as the compound, how does the Activity [1] read?
A: inactive

Q: What about the inhibition [2] of the same compound?
A: 18.8%

Q: What about the IC50 [3] of the same compound?
A: > 100 µM

Q: What about the Activity [4] of the same compound?
A: inactive

Q: `C[n+]1c(/C=C/c2ccc(O)cc2)sc2ccccc21` was tested. Which Activity [1] did it give?
A: Active

Q: And the inhibition [2]?
A: 10.5%

Q: And the IC50 [3]?
A: > 100 µM

Q: What about the Activity [4] of the same compound?
A: inactive

Q: Which results are given for `C[n+]1c(/C=C/c2ccc(O)c(O)c2)sc2ccccc21`?
A: Activity [1]: Active; inhibition [2]: 21.7%; IC50 [3]: 11.5 µM; Activity [4]: inactive

Q: What does the source list for `C[n+]1c(/C=C/c2ccc(O)cc2)ccc2ccccc21`?
A: Activity [1]: Active; inhibition [2]: 13.4%; IC50 [3]: > 100 µM; Activity [4]: inactive

Q: With `CN1CCN(c2ccc(/C=C/c3ccc4ccccc4[n+]3C)cc2)CC1` as the compound, how does the Activity [1] read?
A: inactive

Q: And the inhibition [2]?
A: -2.34%

Q: And the IC50 [3]?
A: > 100 µM

Q: And the Activity [4]?
A: inactive

Q: With `COc1cc(/C=C/c2ccc3ccccc3[n+]2C)ccc1O` as the compound, how does the Activity [1] read?
A: Active

Q: What about the inhibition [2] of the same compound?
A: 21%

Q: And the IC50 [3]?
A: 5.4 µM

Q: What about the Activity [4] of the same compound?
A: inactive

Q: Which results are given for `C[n+]1c(/C=C/c2ccccc2)sc2ccccc21`?
A: Activity [1]: inactive; inhibition [2]: 19.5%; IC50 [3]: > 100 µM; Activity [4]: inactive

Q: What does the source list for `C[n+]1c(/C=C/c2ccc(N)cc2)ccc2ccccc21`?
A: Activity [1]: Active; inhibition [2]: 2.11%; IC50 [3]: > 100 µM; Activity [4]: inactive

Q: What does the source list for `C[n+]1c(/C=C/c2ccc(N3CCOCC3)cc2)ccc2ccccc21`?
A: Activity [1]: inactive; inhibition [2]: 1.18%; IC50 [3]: > 100 µM; Activity [4]: inactive

Q: For `C[n+]1c(/C=C/c2cnccn2)ccc2ccccc21`, which Activity [1] is on record?
A: Active

Q: And the inhibition [2]?
A: 8.36%

Q: What about the IC50 [3] of the same compound?
A: > 100 µM

Q: And the Activity [4]?
A: inactive

Q: For `C[n+]1c(/C=C/c2ccc(Br)cc2)sc2ccccc21`, which inhibition [2] is on record?
A: -4.77%

Q: What about the IC50 [3] of the same compound?
A: > 100 µM

Q: And the Activity [4]?
A: inactive

Q: Which results are given for `COc1ccc(/C=C/c2ccc3ccccc3[n+]2C)cc1`?
A: Activity [1]: inactive; inhibition [2]: -9.62%; IC50 [3]: > 100 µM; Activity [4]: inactive

Q: How did the IC50 [3] turn out when `C[n+]1c(/C=C/c2ccc([N+](=O)[O-])cc2)ccc2ccccc21` was run?
A: > 100 µM

Q: What about the Activity [4] of the same compound?
A: inactive

Q: For `CN(C)c1ccc(/C=C/c2ccc3ccccc3[n+]2C)cc1`, which Activity [1] is on record?
A: inactive

Q: And the IC50 [3]?
A: > 100 µM

Q: What about the Activity [4] of the same compound?
A: inactive

Q: For `COc1ccc(/C=C/c2sc3ccccc3[n+]2C)cc1`, which Activity [1] is on record?
A: inactive

Q: What about the inhibition [2] of the same compound?
A: -4.78%

Q: What about the IC50 [3] of the same compound?
A: > 100 µM

Q: And the Activity [4]?
A: inactive

Q: What does the source list for `C[n+]1c(/C=C/c2ccc(F)cc2)ccc2ccccc21`?
A: inhibition [2]: 21.3%; IC50 [3]: > 100 µM; Activity [4]: inactive

Q: For `C[n+]1c(/C=C/c2ccc(N)cc2)sc2ccccc21`, which inhibition [2] is on record?
A: 14.5%

Q: What about the IC50 [3] of the same compound?
A: > 100 µM

Q: And the Activity [4]?
A: inactive

Q: What does the source list for `C[n+]1c(/C=C/c2cc(Br)c(O)c(Br)c2)ccc2ccccc21`?
A: Activity [1]: inactive; Activity [4]: inactive

Q: `CN(C)c1ccc(/C=C/c2sc3ccccc3[n+]2C)cc1` was tested. Which Activity [1] did it give?
A: inactive

Q: And the inhibition [2]?
A: -2.67%

Q: And the IC50 [3]?
A: > 100 µM

Q: And the Activity [4]?
A: inactive

Q: How did the Activity [1] turn out when `CN1CCN(c2ccc(/C=C/c3sc4ccccc4[n+]3C)cc2)CC1` was run?
A: inactive

Q: And the IC50 [3]?
A: > 100 µM

Q: And the Activity [4]?
A: inactive

Q: With `C[n+]1c(/C=C/c2ccc([N+](=O)[O-])cc2)sc2ccccc21` as the compound, how does the IC50 [3] read?
A: > 100 µM

Q: What about the Activity [4] of the same compound?
A: inactive

Q: How did the Activity [1] turn out when `C[n+]1c(/C=C/c2cc(Br)c(O)c(Br)c2)sc2ccccc21` was run?
A: inactive

Q: And the IC50 [3]?
A: > 100 µM

Q: And the Activity [4]?
A: inactive
